The values below come from patent US20050107430A1, “Antimicrobial and antiviral compounds” (priority 2003, published 2005).

In brackets after ≈: the same amount, converted by molar mass. Several values for one entry are separate records, joined by “and”; a condition that tells them apart may be missing. Equal values may be shown once. Entries after “also recorded” stand apart in the source; their conditions may differ.

The subject of data set [1] is VRE (Vancomycin resistant Enterococci). Nature of the data set: NCCLS MIC/MBC microdilution, VRE. Particulars: for MIC, VRE enterococcus (E. faecalis): 24 h and 48 h same results. (In broth dilution the organism is exposed to a series of concentrations in liquid medium.)
Description: (§2) Standard NCCLS (e.g., National Committee for Clinical Laboratory Standards) methods for determining MIC (e.g., minimum inhibitory concentration) and MBC (e.g., minimum bactericidal concentration) were used. 96 well micro-well plates were placed in a humid chamber and frozen at −70° C. [BBL Mueller Hinton Broth]. Drugs (e.g., antimicrobial compounds of the present invention) were added to a series of wells through 2 fold serial dilutions. 100 μl of a 2×10^−3 M solution of the respective Tx compounds was added to the first well in a series. 100 μl of the inoculum (e.g., microorganism) was added to the well. […] For example, the concentration in well 8 would be less than the concentration of the same drug in well 7. Inoculum (e.g., microorganism) that was added to the wells was prepared from 24 hour growth of an isolate on 5% sheep blood/Columbia agar plates. 5 to 10 representative colonies were then picked from the plates and added to saline and adjusted to 0.5 McFarland turbidity. Next the sample was diluted 1:100 in saline, such that 100 μl of the diluted sample contained approximately 1×10^5 microbes. 100 μl of the diluted sample was added to each well in a series of drug concentrations. Once the cells were added to the wells, the well plates were incubated at 35° C. without CO2 for 48 hrs and at this time the minimum bactericidal concentration was determined.
(§3) The MIC of Tx-118, Tx-147, and Tx-197 for certain Staphylococcus aureus (MRSA), Pseudomonas aeruginosa, Stenotrophomonas maltophilia, and VRE Enterococcus faecalis was determined using standard NCCLS methods. The first well in each series of decreasing drug concentrations contained 1×10^−4 M of a drug. The drug was diluted by serial two fold dilutions through all 12 wells in a series. There was a final DMSO concentration of 2% in the first well and 1% in the second well, etc. Tests with Tx-118 and Tx-197 were performed in triplicate, and tests with Tx-147 were performed in duplicate.
Data set [2] concerns Mycobacterium fortutium. Nature of the data set: MIC, Mycobacterium fortutium. The class given is cell-based. Particulars: for MIC, Mycobacterium fortutium: Table 3.
Data set [3] has as its system P. aeruginosa. Nature of the data set: NCCLS MIC/MBC microdilution, P. aeruginosa. Details: MIC: key to the marks not given beside the values. Particulars: for MIC, P. aeruginosa: Table 3, P. aeroginosa is L13 from Table 2.
Data set [4] relates to Stenotrophomonas maltophilia. Nature of the data set: NCCLS MIC/MBC microdilution, S. maltophilia. Particulars: for MIC, Stenotrophomonas maltophilia: 24 h and 48 h same results.
Description: as §2, §3
Data set [5] has as its system MRSA (oxacillin/methicillin resistant S. aureus). Nature of the data set: NCCLS MIC/MBC microdilution, MRSA. Particulars: for MIC, MRSA (methicillin resistant): Table 3, 24 h and 48 h same results.
Description: as §2, §3
Data set [6] has as its system chloroquin (CQ) resistant strain of Plasmodium falciparum (Pf). Nature of the data set: In vitro efficacy against chloroquin resistant Plasmodium falciparum. Particulars: for IC50: CQ resistant P. falciparum, in vitro, triplicate. The class given is cell-based. Here is the method:
Tx-5 and Tx-84 were tested for in vitro efficacy against a chloroquin (CQ) resistant strain of Plasmodium falciparum (Pf). The tests were performed in triplicate at a wide variety of concentrations and evaluated for effect compared with CQ.

For data set [7], the system named is M. avium intracellularie. Nature of the data set: MIC, M. avium intracellularie. In kind it is cell-based, Mycobacterium avium intracellulare. Particulars: Table 3.
Data set [8] relates to Mycobacterium tuberculosis. Particulars: Table 3.
The test system of data set [9] is various microorganisms. Nature of the data set: Antimicrobial activity tests, various microorganisms. Particulars: for growth in wells (activity): Example 1 microbes.
In data set [10] the test system is S. aureus. Nature of the data set: NCCLS MIC/MBC microdilution, S. aureus patient isolates. In kind it is cell-based, Staphylococcus aureus. Particulars: for MBC: read at 48 hr. An excerpt: (§1) [BBL Mueller Hinton Broth].
The test system of data set [11] is BDF1′ mice. Particulars: 30 mg/kg ip.
Data set [12] has as its system Vancomycin resistant S. aureus ATCC700699 and 700788 (VRSA). Nature of the data set: NCCLS MIC/MBC microdilution, vancomycin resistant S. aureus. The class given is cell-based, Staphylococcus aureus. Particulars: for MBC: read at 48 hr.
From the text: as §1

Data set [13] deals with Enterococcus faecium. Nature of the data set: NCCLS MIC/MBC microdilution, Enterococcus (vancomycin sensitive). Particulars: for MBC: read at 48 hr. The class given is cell-based.
From the text: as §1

Data set [14] has as its system E. coli ATCC 25922. Nature of the data set: NCCLS MIC/MBC microdilution, E. coli. Particulars: plate EC. In kind it is cell-based.
From the text: as §1

The mark [15] stands for this setting: Example 2, first well 1×10^−4 M.
The mark [16] stands for this setting: plate S332, S aureus patient isolate.
Setting [17] is: Table 3, 24 h and 48 h same results.
[18] abbreviates: plate 699, VancoR S. aureus ATCC700699.
Setting [19] is: plate 788, VancoR S. aureus ATCC 700788.
[20] abbreviates: plate E348, Enterococcus faecium patient isolate.
[21] abbreviates: plate E502, Enterococcus faecium ATCC 502806.
[22] abbreviates: plate E523, Enterococcus facium patient isolate.

For the molecule `O=C1[C@@H](O)[C@H](c2ccccc2)N1c1cc2c3ccccc3ccc2c2ccccc12` (relative stereo) [Tx-197, Trans-1-N-(6′-chrysenyl)-3-hydroxy-4-phenyl-2-azetidinone], the “MIC, VRE enterococcus (E. faecalis)” value in data set [1] (Table 3) is on record as “No activity”. Further, the “MIC, Mycobacterium fortutium” value in [2] is listed as “No activity”. Further, the “MIC, P. aeruginosa” value in data set [3] is reported as “No activity”. The “MIC, Stenotrophomonas maltophilia” value in [4] (Table 3) is on record as “No activity”. Besides, the “MIC, MRSA (methicillin resistant)” value in data set [5] was “No activity”.
For `CCN(CC)CCCC(C)Nc1ccnc2cc(Cl)ccc12` (centres unmarked) [CQ, chloroquin, reference compound], half-maximal inhibition in data set [6] (IC50) was put at 606 nM.
For the molecule `CN1CCN(C(=O)CCC(=O)Nc2cc3c4ccccc4ccc3c3ccccc23)CC1` [Tx-1, N-(6′-chrysenyl)-4-(4′N methyl-piperazinyl)-butane-1,4-dicarboxiamide], the “MIC, M. avium intracellularie” value in data set [7] worked out at 46 µg/mL (≈ 108 µM). Besides, the “MIC, Mycobacterium tuberculosis” value in data set [8] came to 2.9 µg/mL (≈ 6.81 µM).
With `CN1CCN(C(=O)CCC(=O)Nc2ccc3c(ccc4c5ccccc5ccc34)c2)CC1` [Tx-2, N-(2′-chrysenyl)-4-(4′N-methyl-piperazinyl)-butane-1,4-dicarboxiamide], in data set [7], the “MIC, M. avium intracellularie” value came out at 15.6 µg/mL (≈ 36.7 µM). Moreover, the “MIC, Mycobacterium tuberculosis” value in data set [8] came to 1 µg/mL (≈ 2.35 µM).
The like results for `O=C(CCC(=O)N1CCCCC1)Nc1cc2c3ccccc3ccc2c2ccccc12` [Tx-3, N-(6′-chrysenyl)-4-(1′-piperidinyl)-butane-1-4-dicarboxiamide] were, in that order, “.98 µg/mL” and “.125 µg/mL”.
As for `O=C(CCC(=O)N1CCCCC1)Nc1ccc2c(ccc3c4ccccc4ccc23)c1` [Tx-4, N-(2′-chrysenyl)-4-(1′-piperidinyl)-butane-1,4-dicarboxiamide], the “MIC, M. avium intracellularie” value in data set [7] is “.82 µg/mL”. The “MIC, Mycobacterium tuberculosis” value in data set [8] was “.1 µg/mL”.
Consider `CN1CCN(C(=O)CCC(=O)Nc2cc3c4ccccc4c(Br)cc3c3ccccc23)CC1` [Tx-9, N-(12′-bromo, 6′-chrysenyl)-4-(4′N methyl-piperazinyl)-butane-1,4-dicarboxiamide], for which, in data set [9], the “growth in wells (activity)” value was “+3 growth (e.g., no activity)”.
Still for that read-out and setting: the same measure for `CN1CCN(C(=O)CCC(=O)Nc2ccc3c(c2)c(Br)cc2c4ccccc4ccc32)CC1` [Tx-10, N-(12′-bromo, 2′-chrysenyl)-4-(4′N methyl-piperazinyl)-butane-1,4-dicarboxiamide]: “+3 growth (e.g., no activity)”.
Still for that read-out and setting: the same measure for `O=C(CCC(=O)N1CCCCC1)Nc1cc2c3ccccc3c(Br)cc2c2ccccc12` [Tx-11, N-(12′-bromo, 6-chrysenyl)-4-(1′-piperidinyl)-butane-1,4-dicarboxiamide]: “+3 growth (e.g., no activity)”; for `O=C(CCC(=O)N1CCCCC1)Nc1ccc2c(c1)c(Br)cc1c3ccccc3ccc21` [Tx-12, N-(12′-bromo, 2′-chrysenyl)-4-(1′-piperidinyl)-butane-1,4-dicarboxiamide]: “+3 growth (e.g., no activity)”.
Turning to `c1ccc2c(c1)c(NCCCCN1CCCCC1)cc1c3ccccc3c(NCCCCN3CCCCC3)cc21` [Tx-84], the “MIC, VRE enterococcus (E. faecalis)” value in data set [1] (Table 3) was 4 to 33 µg/mL. In [3], the “MIC, P. aeruginosa” value is “No activity”. Moreover, the “MIC, MRSA (methicillin resistant)” value in data set [5] worked out at 16 µg/mL (≈ 29.8 µM). In data set [6], the IC50 (usually the concentration at which inhibition is half-maximal) came to 91 nM. In addition, the “inhibitory effect against Pf” value in data set [6] (in words) was “significant inhibitory effect; also recorded: greater than that of CQ”.
`CC(=O)c1cc2c3ccccc3ccc2c2ccc(NC(=O)CCC(=O)N3CCN(C)CC3)cc12` [Tx-118, N-(12′-acetyl, 2′-chrysenyl)-4-(4′N methyl-piperazinyl)-butane-1,4-dicarboxiamide]: the “MIC, VRE enterococcus (E. faecalis)” value in data set [1] (Table 3) is given as “No activity”. For the same molecule, the “MIC, Mycobacterium fortutium” value in data set [2] is listed as “No activity”. Further, the “MIC, P. aeruginosa” value in [3] is “No activity”. Moreover, in data set [4] (Table 3), the “MIC, Stenotrophomonas maltophilia” value is “No activity”. Besides, in data set [5], the “MIC, MRSA (methicillin resistant)” value is recorded as “No activity”.
Regarding `CN1CCN(CCCCNc2cc3c4ccccc4c(NCCCCN4CCN(C)CC4)cc3c3ccccc23)CC1.Cl` [Tx-147], the “MIC for VRE” value in data set [1] (setting [15]) was 0.0019 µg/mL. Besides, the “MIC, VRE enterococcus (E. faecalis)” value in data set [1] (Table 3) was found to be 12 µg/mL. In data set [1] (Table 3, vancomycin, Penicillin & aminoglycoside resistant), the “MIC, VRE enterococcus (vancomycin, Penicillin & aminoglycoside rest.)” value is 19 µg/mL. Moreover, the “bactericidal activity for VRE” value in data set [1] (in words, Example 1) is “some bactericidal activity”. Moreover, the MIC – broadly, the lowest concentration found to suppress growth – in [1] (plate D4, VRE patient isolate) is 12 µg/mL; in [10] (setting [16]) it was 12/12 ug/ml; in [10] (plate S520, S aureus patient isolate penicillin resistant), 12/12 ug/ml; in data set [12] (setting [18]), 6 µg/mL; in data set [12] (setting [19]) it was 24 µg/mL; in [3] (plate 37, P. aeruginosa sensitive isolate) it was “+++”. Moreover, the MIC entry in data set [3] (plate ATCC, P. aeruginosa ATCC 27853) was “+++”; in [3] (plate L13, P. aeruginosaR (multi-resistant)) it was “+++”; in [4] (plate C3, S. maltophilia patient isolate) it was 96 µg/mL; in data set [4] (plate I10, S. maltophilia patient isolate), 784 µg/mL; in data set [4] (plate J11, S. maltophilia patient isolate), 784 µg/mL; in data set [13] (setting [20]), 3 µg/mL. For the same molecule, the MIC amounted to 6 µg/mL in data set [13] (setting [21]); 6 µg/mL in [13] (setting [22]); 24 µg/mL in data set [5] (plate A1, MRSA patient isolate); 48 µg/mL in data set [5] (plate B2, MRSA patient isolate); 24 µg/mL in data set [5] (plate E5, MRSA patient isolate); 24 µg/mL in [5] (plate F6, MRSA patient isolate). Further, the MIC in data set [5] (plate G7, MRSA patient isolate) is 24 µg/mL; in [5] (plate H9, MRSA patient isolate), 48 µg/mL; in data set [5] (plate K12, MRSA patient isolate), 48 µg/mL; in data set [14], “+++”. Further, the MBC (in general, the smallest concentration meeting the test's criterion for killing) was 12/12 ug/ml in data set [10] (setting [16]); 12/12 ug/ml in [10] (plate S520, S aureus patient isolate); 23 µg/mL in data set [12] (setting [18]); 49 µg/mL in data set [12] (setting [19]); 6 µg/mL in data set [13] (setting [20]); 12 µg/mL in data set [13] (setting [21]). Also, the minimal bactericidal concentration (MBC) in data set [13] (setting [22]) is 12 µg/mL. For the same molecule, the “animal studies (ip), mortality” value in [11] is 30 mg/kg (10-12% mort). In [7], the “MIC, M. avium intracellularie” value lay in the range of 12 to 24 µg/mL. Further, the “MIC, VRSA (ATCC 700699)” value in data set [12] (setting [17]) was 6 µg/mL. The “MIC, VRSA (ATCC 700788)” value in [12] (setting [17]) was 24 µg/mL. In addition, in data set [8], the “MIC, Mycobacterium tuberculosis” value was found to be 3 µg/mL. Besides, the “MIC for Mycobacterium fortutium” value in data set [2] (Example 2) is 0.0039 µg/mL. For the same molecule, the “MIC, Mycobacterium fortutium” value in data set [2] worked out at 39 µg/mL. In addition, the “MIC, P. aeruginosa” value in data set [3] is “No activity”. For the same molecule, the “MIC for Stenotrophomonas maltophilia” value in [4] (setting [15]) was 0.0078 µg/mL. In [4] (Table 3), the “MIC, Stenotrophomonas maltophilia” value was in the range of 98 to 785 µg/mL. Besides, the “MIC, Stenotrophomonas maltophilia (resist. various drugs)” value in [4] (Table 3, strain resist. various drugs) is 78 µg/mL. For the same molecule, the “MIC for Staphylococcus aureus (MRSA)” value in [5] (Example 2, first well 1×10^−4 M, two fold dilutions) worked out at 0.0039 µg/mL. The “concentration that was bactericidal, Staphylococcus aureus (MRSA)” value in data set [5] (Example 2, wells 1 and 2, hydrochloride) was 0.0078 µg/mL and 0.0039 µg/mL. In data set [5], the “MIC, MRSA (methicillin resistant)” value is 24 to 49 µg/mL. For the same molecule, in [5] (in words, Example 1), the “bactericidal activity against Staphylococcus aureus (MRSA)” value is listed as “bactericidal activity”.
`Cl.c1ccc2c(c1)c(NCCCCN1CCCCC1)cc1c3ccccc3c(NCCCCN3CCCCC3)cc21` [Tx-225]: the antimicrobial activity entry in data set [9] (in words) was “activity similar to Tx-84”.
